Reference: patent US20040082588A1, “Methods for treating disorders of calcium homeostasis” (Schering Corporation, priority 2002, published 2004)

What was measured:
[1] = system: Female Rats; experiment: One-month exploratory nephrotoxicity study in female rats: urine calcium and phosphorus excretion; assay type: in vivo, rat; settings: for Mean calcium excretion / Mean phosphorus excretion: female rats, 180 mg/kg daily
Source text: (§1) A study was undertaken to assess the potential nephrotoxicity of the compound of Formula 1 in rats. The rats were 6 week old females weighing 120.7 to 173.5 g at dosing initiation.
(§2) The study design is summarized below in Tables 1-3: […]

[2] = system: Female Rats; experiment: One-month exploratory nephrotoxicity study in female rats: serum ADH; assay type: in vivo, rat; settings: for Mean serum ADH: female rats, 180 mg/kg daily
Source text: as §1, §2

[3] = system: Female Rats; experiment: One-month exploratory nephrotoxicity study in female rats: urine volume and osmolality; assay type: in vivo, rat; settings: for Mean urine osmolality / Mean urine volume: female rats, 180 mg/kg daily
Source text: as §1, §2

[4] = system: Female Rats; experiment: One-month exploratory nephrotoxicity study in female rats: serum PTH; assay type: in vivo, rat; settings: for Mean serum PTH: female rats, 180 mg/kg daily
Source text: as §1, §2

[5] = system: rat parathyroid glands; experiment: Micrographic analysis (light and electron microscopy) of rat parathyroid glands; assay type: in vivo
Source text: Electron photomicrographs of the right parathyroid gland from two control rats sacrificed on Day 13 (Nos. 26F and 29F), two control rats sacrificed on Day 29 (Nos. 39F and 40F) and two Formula 1-dosed rats sacrificed on Day 29 (Nos. 76F and 77F) were examined for ultrastructural changes. […] A single rounded parathyroid epithelial cell in animal No. 77F appeared apoptotic with condensed chromatin and intact mitochondria and contained numerous vesicles similar to those previously described. The apoptotic cell is consistent with the single cell necrosis observed at the light microscopic level.

[6] = system: Ras-3T3 tumors; settings: mice bearing Ras-3T3 tumors with hypercalcemia (MAH); cited from earlier work
[7] = biological target: Farnesyl Protein Transferase (FPT) (Homo sapiens, UniProt P49356); settings: cited from earlier work
[8] = within 6 days of dosing at 180 mg/kg, rats
[9] = electron photomicrographs, dosed rats
[10] = electron photomicrographs, two dosed rats sacrificed on Day 29

Structure (SMILES): NC(=O)N1CCC(CC(=O)N2CCC(C3c4ncc(Br)cc4CCc4cc(Cl)cc(Br)c43)CC2)CC1 (centres unmarked) [Formula 1]
- Mean calcium excretion ([1]; Day 2, urine): 5.65 mg/kg/24 hours
- Mean phosphorus excretion ([1]; Day 2, urine): 55.9 mg/kg/24 hours
- Mean calcium excretion ([1]; Day 6, urine): 33 mg/kg/24 hours
- Mean phosphorus excretion ([1]; Day 6, urine): 13.5 mg/kg/24 hours
- Mean calcium excretion ([1]; Day 13, urine): 20.7 mg/kg/24 hours
- Mean phosphorus excretion ([1]; Day 13, urine): 12.1 mg/kg/24 hours
- Mean calcium excretion ([1]; Day 29, urine): 19.2 mg/kg/24 hours
- Mean phosphorus excretion ([1]; Day 29, urine): 7.3 mg/kg/24 hours
- calcium excretion in the urine (change vs control) [1, 8]: increased
- phosphorus excretion (change vs control) [1, 8]: decreased
- Mean serum ADH ([2]; Day 2): 350 pg/mL
- Mean serum ADH ([2]; Day 6): 513 pg/mL
- Mean serum ADH ([2]; Day 13): 547 pg/mL
- Mean serum ADH ([2]; Day 29, water consumption had increased at this timepoint): 616^1 pg/ml
- antidiuretic hormone (ADH) concentrations (change vs control) ([2]; rats dosed at 180 mg/kg): increases
- Mean urine osmolality ([3]; Day 2): 646 mOsm/kg
- Mean urine volume ([3]; Day 2): 124 ml/kg/24 hours
- Mean urine osmolality ([3]; Day 6): 646 mOsm/kg
- Mean urine volume ([3]; Day 6): 195 ml/kg/24 hours
- Mean urine osmolality ([3]; Day 13): 655 mOsm/kg
- Mean urine volume ([3]; Day 13): 177 ml/kg/24 hours
- Mean urine osmolality ([3]; Day 29): 606 mOsm/kg
- Mean urine volume ([3]; Day 29): 166 ml/kg/24 hours
- condition suggested by urine osmolality, urine volume and ADH changes ([3]; rats dosed at 180 mg/kg): nephrogenic diabetes insipidus
- urine osmolality (change vs control) ([3]; rats dosed at 180 mg/kg): Decreases
- urine volume (change vs control) ([3]; rats dosed at 180 mg/kg): increases
- Mean serum PTH ([4]; Day 2): 60 ng/mL
- Mean serum PTH ([4]; Day 6): 51 ng/mL
- Mean serum PTH ([4]; Day 13): 68 ng/mL
- Mean serum PTH ([4]; Day 29): 44 ng/mL
- serum PTH (change vs control) ([4]; rats dosed at 180 mg/kg): decrease
- rats evaluated with lower PTH serum concentrations than the control rats ([4]; within 28 days, 180 mg/kg): 5 out of 5
- changes indicating chronic stimulation of parathyroid (rough endoplasmic reticulum, Golgi apparatus) [5, 9]: no changes indicating chronic stimulation
- exhaustion vacuoles in parathyroid cells [5, 9]: no evidence of exhaustion vacuoles
- Ultrastructure of parathyroid chief cells: cell borders [5, 10]: less conspicuous cell borders with fewer, less distinctive cytoplasmic projections
- Ultrastructure of parathyroid chief cells: cytoplasm content [5, 10]: numerous, generally membrane-bound, vesicles
- number of myeloid bodies and fat globules in parathyroid cells [5, 10]: minimally increased
- Microscopic evaluation of the parathyroid glands ([5]; rats dosed with 180 mg/kg): cytoplasmic vacuolation

Structure (SMILES): COC(=O)[C@H](CCSC)NC(=O)[C@H](/C=C\[C@@H](/C=C/[C@@H](N)CS)C(C)C)Cc1ccccc1 [Formula B-1086]
- serum PTHRP levels [6]: reduction
- serum calcium [6]: normalization

Structure (SMILES): NC(=O)N1CCC(CC(=O)N2CCC([C@H]3c4ncc(Br)cc4CCc4cc(Cl)cc(Br)c43)CC2)CC1 [SCH66336]
- FPT mediated farnesylation of the Ras protein [7]: inhibit
